We go through eleven molecules from ChEMBL document CHEMBL3259643 (Eur J Med Chem, 2014).

Data set [1] is described as follows: Apparent octanol-phosphate buffer partition coefficient, log D of the compound at 1 mg at pH 7.4 after 24 hrs by HPLC analysis. It is filed as physicochemical.
Data set [2] deals with Influenza A virus (A/WSN/1933(H1N1)). Briefly: Antiviral activity against Influenza A virus (A/WSN/1933(H1N1)) infected in BALB/c mouse assessed as increase in survival rate at 0.12 umol/kg/day administered on day 0 intranasally bid prior to viral infection continued for day 1 to day 4 measured on day 9. It is filed as functional.
Data set [3] has the same test system. Briefly: Antiviral activity against Influenza A virus (A/WSN/1933(H1N1)) infected in BALB/c mouse assessed as increase in survival rate at 2.6 umol/kg/day, po bid administered on day 0 prior to viral infection continued for day 1 to day 4 measured on day 14. Format: functional, organism-based.
Data set [4] shares this test system. Briefly: Antiviral activity against Influenza A virus (A/WSN/1933(H1N1)) infected in BALB/c mouse assessed as increase in survival rate at 1.2 umol/kg/day administered on day 0 intranasally bid prior to viral infection continued for day 1 to day 4 measured on day 14. Format: functional.
The subject of a further data set is MDCK. Briefly: Cytotoxicity against MDCK cells at >10 uM after 48 to 72 hrs. Format: cell-based, Canis lupus familiaris. Conditions: dog.
The nature of data set [5]: Cellular uptake in MDCK2 cells measured per mg of protein at 100 ug/mL after 120 mins by HPLC analysis. It is filed as ADME, cell-based, Canis lupus familiaris. Conditions: dog, mdck-ii, 2 h.
The next data set deals with Neuraminidase (Influenza A virus, UniProt B4URF0). Details: species or system Influenza A virus (A/WSN/1933(H1N1)).
A further data set has as its system HEK-293T. Briefly: Cytotoxicity against human 293T cells at >10 uM after 48 to 72 hrs. Format: cell-based.
Data set [6] is described as follows: Terminal half life in ICR mouse at 0.25 mg/kg, iv. It is filed as ADME, organism-based. Also on record: dose 0.25 mg/kg, route intravenous. Conditions: in vivo, read-out: beta t1/2 (converted).
Data set [7] can be described thus: First order rate constant associated with the terminal portion of the curve in ICR mouse at 0.25 mg/kg, iv. Format: ADME, organism-based. Details: dose 0.25 mg/kg, route intravenous. Particulars: in vivo.
Data set [8] in a line: Cmax in ICR mouse at 10 mg/kg. Format: ADME, organism-based. Details: dose 10 mg/kg. Particulars: in vivo.
A short description of data set [9]: Terminal half life in ICR mouse at 10 mg/kg, po. Format: ADME, organism-based. Also on record: dose 10 mg/kg, route oral. Conditions: in vivo, read-out: beta t1/2 (converted).
The next data set concerns Mus musculus. Briefly: Bioavailability in ICR mouse at 0.25 mg/kg, iv. Format: ADME, organism-based. Particulars: in vivo.
The test system of another data set is Caco-2. Put plainly: Permeability across apical to basolateral side in human Caco2 cells at 100 ug/mL after 15 to 120 mins by HPLC analysis. It is filed as ADME, cell-based. (Passage across Caco-2 layers is used to estimate intestinal permeability.)
Data set [10] can be described thus: First order rate constant associated with the terminal portion of the curve in ICR mouse at 10 mg/kg, po. It is filed as ADME, organism-based. Details: dose 10 mg/kg, route oral. Particulars: in vivo.
Data set [11] is described as follows: AUC (0 to infinity) in ICR mouse at 10 mg/kg, po. Also on record: time infinity, dose 10 mg/kg, route oral. Conditions: plasma. Format: ADME, organism-based.
Data set [12] can be described thus: Oral bioavailability in ICR mouse at 10 mg/kg. It is filed as ADME, organism-based. Conditions: in vivo.
The nature of data set [13]: AUC (0 to infinity) in ICR mouse at 0.25 mg/kg, iv. It is filed as ADME, organism-based. Also on record: time infinity, dose 0.25 mg/kg, route intravenous. Conditions: plasma.
The nature of data set [14]: Apparent total clearance in ICR mouse at 10 mg/kg. Particulars: in vivo, read-out: CLt/F (converted). Also on record: dose 10 mg/kg. Format: ADME, organism-based.
Data set [15] in a line: Tmax in ICR mouse at 10 mg/kg. Format: ADME, organism-based. Also on record: dose 10 mg/kg. Particulars: in vivo.
The nature of data set [16]: AUC (0 to 2 hrs) in ICR mouse at 0.25 mg/kg, iv. It is filed as ADME, organism-based. Also on record: time < 2 hr, dose 0.25 mg/kg, route intravenous. Conditions: plasma.
Data set [17] is described as follows: AUC (0 to 12 hrs) in ICR mouse at 10 mg/kg, po. It is filed as ADME, organism-based. Details: time < 12 hr, dose 10 mg/kg, route oral. Particulars: plasma.

pIC50: −log10 of the molar value. Active and inactive are the calls of the source. The calls are words filed in the database; no cut-off is given here. Some results are limits rather than exact numbers.

Chain of Neuraminidase (B4URF0 whole entry): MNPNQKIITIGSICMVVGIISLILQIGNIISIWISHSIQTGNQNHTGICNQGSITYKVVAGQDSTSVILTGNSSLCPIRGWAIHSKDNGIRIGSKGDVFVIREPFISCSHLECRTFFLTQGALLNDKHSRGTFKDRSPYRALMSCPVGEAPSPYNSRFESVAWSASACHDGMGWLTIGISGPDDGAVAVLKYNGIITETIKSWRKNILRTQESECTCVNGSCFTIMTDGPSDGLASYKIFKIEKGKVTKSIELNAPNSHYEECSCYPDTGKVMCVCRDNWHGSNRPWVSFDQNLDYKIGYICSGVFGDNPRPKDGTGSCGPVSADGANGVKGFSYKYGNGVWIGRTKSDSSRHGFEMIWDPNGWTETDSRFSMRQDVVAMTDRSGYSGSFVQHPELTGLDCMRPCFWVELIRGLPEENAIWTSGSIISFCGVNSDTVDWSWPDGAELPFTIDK

For `CCC(CC)O[C@@H]1C=C(P(=O)(O)OCCCc2ccccc2)C[C@H](NC(=N)N)[C@H]1NC(C)=O`, the log distribution coefficient (logD) (commonly the decadic logarithm of the distribution of all forms, ionised or not, between an organic phase and buffer at a given pH) at 24 h in data set [1] worked out at 0.66. Also, the outcome in data set [2], in [3] and in [4] was Active. Further, the Activity entry with MDCK and in the data set with HEK-293T was “Non-toxic” each time. The molecule further came in with a Drug uptake in [5] of less than 2000 ng. On Neuraminidase, the pIC50 (usually −log10 of the IC50, conventionally taken in molar units) is 8.49.

With `CCCCOP(=O)(O)C1=C[C@@H](OC(CC)CC)[C@H](NC(C)=O)[C@@H](NC(=N)N)C1`, the logD at 24 h in data set [1] is -0.16. For the same molecule, the Activity result in the data set with MDCK and with HEK-293T was “Non-toxic” throughout. For the same molecule, on Neuraminidase, the pIC50 was 8.17.

Regarding `CCCCCCOP(=O)(O)C1=C[C@@H](OC(CC)CC)[C@H](NC(C)=O)[C@@H](NC(=N)N)C1`, the figures for the half-life in data set [6] and in data set [9] were 0.36 h and 1.07 h, respectively. Moreover, the k el in [7] was 0.000533 s⁻¹; in data set [10] it was 0.000167 s⁻¹. Further, the highest level in data set [8] (Cmax) was 0.261 µg/mL. Also, in data set [1], the log distribution coefficient (logD) at 24 h came to 0.63. Further, the F with Mus musculus is recorded as 100%. The outcome in data set [2], in [3] and in data set [4] was Active. For the same molecule, in the data set on Caco-2, the permeability entry is reported as “permeable”. The AUC(0-inf) (usually the area under the concentration-time curve extrapolated to infinity) in data set [11] was found to be 0.867 µg·h/mL; in [13], 0.173 µg·h/mL. Moreover, the bioavailability (in general, the share of a dose that reaches the circulation, judged against a reference dose that is usually intravenous) in [12] was determined as 12.6%. The CL/F in data set [14] was 11.1 L/h/kg. In addition, the Activity entry in the data set on MDCK and in the data set on HEK-293T was “Non-toxic” in each case. In addition, the Tmax (usually the time at which the peak concentration occurs) in data set [15] amounted to 1 h. Moreover, the AUC(0-t) (as a rule, the area under the concentration-time curve up to a stated or last time point) at 2 h in data set [16] was 0.169 µg·h/mL. This molecule also yielded a Drug uptake in data set [5] of 13500 ng. The pIC50 against Neuraminidase was 8.39. In data set [17], this molecule returned an AUC(0-t) at 12 h of 0.361 µg·h/mL.

Regarding `CCCCOP(=O)(O)C1=C[C@@H](OC(CC)CC)[C@H](NC(C)=O)[C@@H](N)C1`, the logD at 24 h in data set [1] is -0.29. The Activity result in the data set with MDCK and in the data set with HEK-293T was “Non-toxic” in each case. At Neuraminidase, this molecule had a pIC50 of 8.16.

As to `CCOC(=O)C1=C[C@@H](OC(CC)CC)[C@H](NC(C)=O)[C@@H](N)C1`, in data set [3], the outcome was Active.

Take `CCC(CC)O[C@@H]1C=C(P(=O)(O)OCCCc2ccccc2)C[C@H](N)[C@H]1NC(C)=O`: in [1], the logD at 24 h worked out at 0.28. The Activity entry with MDCK and with HEK-293T was “Non-toxic” in each case. On Neuraminidase, the pIC50 is 8.74.

Regarding `CCC(CC)O[C@@H]1C=C(P(=O)(O)OCCCc2c[nH]c3ccccc23)C[C@H](N)[C@H]1NC(C)=O`, the Activity entry in the data set with MDCK and with HEK-293T was “Non-toxic” throughout. The pIC50 against Neuraminidase is 8.77.

Turning to `CCCCCCOP(=O)(O)C1=C[C@@H](OC(CC)CC)[C@H](NC(C)=O)[C@@H](N)C1`, the pH-dependent lipophilicity (logD) at 24 h in data set [1] came to 0.3. In addition, the Activity result with MDCK and with HEK-293T was “Non-toxic” each time. At Neuraminidase, the negative logarithm of the IC50 (pIC50) is 8.66.

With `CCOP(=O)(O)C1=C[C@@H](OC(CC)CC)[C@H](NC(C)=O)[C@@H](N)C1` [TAMIPHOSPHOR MONOETHYL ESTER], the Activity entry in the data set with MDCK and in the data set with HEK-293T was “Non-toxic” each time.

As to `CCOP(=O)(O)C1=C[C@@H](OC(CC)CC)[C@H](NC(C)=O)[C@@H](NC(=N)N)C1` [TAMIPHOSPHOR MONOETHYL ESTER], the result in [2], in [3] and in data set [4] was Active.

As to `CC(=O)N[C@H]1[C@H]([C@H](O)[C@H](O)CO)OC(C(=O)O)=C[C@@H]1NC(=N)N`, in data set [2], the outcome was inactive.
